The subject of the experiment is primary rat mixed cortical cells. In words: In vitro myelination assay (MBP positive myelin strands, fold myelin pixels above background). In kind it is cell-based. The conditions noted are these: Rattus norvegicus; for fold induction at 1 µM: 1.0 μM compound; for fold induction at 10 µM: 10.0 μM compound. An outline of the steps:
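P1 rat mixed cortical cultures (neurons, OPCs, oligodendrocytes, astrocytes, microglia) grown 14 days at 37 °C with compound, half-medium refreshed with compound on days 6 and 10. Fixed cells stained for MBP; MBP-positive myelin strand pixels per well quantified by automated imaging, reported as fold over no-compound baseline at 1.0 and 10.0 μM.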

[1] abbreviates: relative to baseline of no added compound, read-out: Fold myelin pixels above background.
[2] abbreviates: relative to baseline of no added compound, read-out: Fold myelin pixels above background, 1.0 μM.
Where [3] appears, read: relative to baseline of no added compound, read-out: Fold myelin pixels above background, 10.0 μM.
[4] abbreviates: read-out: Fold myelin pixels above background relative to baseline of no added compound.

Like-named read-outs stand apart in the source and are kept apart here.

As to `Fc1cccc(-n2cnc(Nc3cc(C4CC4)cc(N4CCN(C5COC5)CC4)c3)n2)c1` [Compound 462, N-[3-cyclopropyl-5-[4-(oxetan-3-yl)piperazin-1-yl]phenyl]-1-(3-fluorophenyl)-1,2,4-triazol-3-amine], under setting [1], the fold induction at 1 µM fell in the range of 100 to 1000 and the fold induction at 10 µM was no more than 1.

On to `Cc1cc(Nc2ncn(-c3cc(F)cc(F)c3)n2)cc(O[C@H]2CCCN(C3COC3)C2)c1` (single isomer, unassigned) [Compound 700], for which, under setting [1], the fold induction at 1 µM was in the range of 10 to 100 and the fold induction at 10 µM was no more than 1.

As for `Cc1cc(Nc2ncn(-c3cc(F)cc(F)c3)n2)c(C)c(N2CCN(C3COC3)CC2)c1` [Compound 697, 1-(3,5-difluorophenyl)-N-[2,5-dimethyl-3-[4-(oxetan-3-yl)piperazin-1-yl]phenyl]-1,2,4-triazol-3-amine], under setting [1], the fold induction at 1 µM fell in the range of 1 to 10 and the fold induction at 10 µM lay in the range of 10 to 100.

With `COC1CCCN(c2cc(C)cc(Nc3ncn(-c4cc(F)cc(F)c4)n3)n2)C1` (stereo not drawn) [Compound 764, N-[1-(3,5-difluorophenyl)-1,2,4-triazol-3-yl]-6-(3-methoxy-1-piperidyl)-4-methyl-pyridin-2-amine], under setting [1], the fold induction at 1 µM was in the range of 1 to 10 and the fold induction at 10 µM lay within 1 to 10.

For the compound `Cc1cc(Nc2ncn(-c3cc(F)cc(F)c3)n2)cc(N(C)CCN2CCOCC2)c1` [Compound 738, N3-[1-(3,5-difluorophenyl)-1,2,4-triazol-3-yl]-N1,5-dimethyl-N1-(2-morpholinoethyl)benzene-1,3-diamine], under setting [1], the fold induction at 1 µM fell in the range of 10 to 100 and the fold induction at 10 µM is no more than 1.

As for `CS(=O)(=O)c1cc(Nc2ncn(-c3cc(F)cc(F)c3)n2)cc(N2CCN(C3COC3)CC2)c1` [Compound 344, 1-(3,5-difluorophenyl)-N-[3-methylsulfonyl-5-[4-(oxetan-3-yl)piperazin-1-yl]phenyl]-1,2,4-triazol-3-amine], the fold induction at 1 µM under setting [2] lay within 100 to 1000. The fold induction at 10 µM under setting [3] lay in the range of 10 to 100.

With `Cc1cc(Nc2ncn(-c3cc(F)cc(F)c3)n2)cc(N2CCC(N3CCN(C)CC3)CC2)c1` [Compound 772, 1-(3,5-difluorophenyl)-N-[3-methyl-5-[4-(4-methylpiperazin-1-yl)-1-piperidyl]phenyl]-1,2,4-triazol-3-amine], under setting [1], the fold induction at 1 µM fell in the range of 1 to 10 and the fold induction at 10 µM was no more than 1.

On to `Cc1cc(Nc2ncn(-c3cc(F)cc(F)c3)n2)c(F)c(NC2(C)COC2)c1` [Compound 869, N3-[1-(3,5-difluorophenyl)-1,2,4-triazol-3-yl]-2-fluoro-5-methyl-N1-(3-methyloxetan-3-yl)benzene-1,3-diamine], for which, under setting [4], the fold induction at 1 µM was 10 to 100 and the fold induction at 10 µM was 1 to 10.

As for `Cc1cc(Nc2ncn(-c3cc(F)cc(F)c3)n2)c(F)c(N2CC3(COC3)C2)c1` [Compound 743, 1-(3,5-difluorophenyl)-N-[2-fluoro-5-methyl-3-(2-oxa-6-azaspiro[3.3]heptan-6-yl)phenyl]-1,2,4-triazol-3-amine], under setting [1], the fold induction at 1 µM fell in the range of 1 to 10 and the fold induction at 10 µM lay in the range of 10 to 100.

Take `CC(=O)N1CCN(c2cc(Nc3ncn(-c4ccccc4)n3)cc(C(F)F)c2)CC1` [Compound 144, 1-[4-[3-(difluoromethyl)-5-[(1-phenyl-1,2,4-triazol-3-yl)amino]phenyl]piperazin-1-yl]ethanone]: the fold induction at 1 µM under setting [2] lay within 100 to 1000. The fold induction at 10 µM under setting [3] was no more than 1.

On to `CC(C)c1cc(Nc2ncn(-c3ccncn3)n2)cc(N2CCN(C3COC3)CC2)c1` [Compound 511, N-[3-isopropyl-5-[4-(oxetan-3-yl)piperazin-1-yl]phenyl]-1-pyrimidin-4-yl-1,2,4-triazol-3-amine], for which, under setting [1], the fold induction at 1 µM was in the range of 100 to 1000 and the fold induction at 10 µM fell in the range of 100 to 1000.

For `Cc1cc(OCC(=O)N2CCCC2)cc(Nc2ncn(-c3cc(F)cc(F)c3)n2)c1C` [Compound 965, 2-[3-[[1-(3,5-difluorophenyl)-1,2,4-triazol-3-yl]amino]-4,5-dimethyl-phenoxy]-1-pyrrolidin-1-yl-ethanone], under setting [4], the fold induction at 1 µM lay within 10 to 100 and the fold induction at 10 µM lay within 10 to 100.

Turning to `Cc1cc(Nc2ncn(-c3cc(F)cc(F)c3)n2)cc(N2CCN(CCOCCO)CC2)c1` [Compound 1033, 2-[2-[4-[3-[[1-(3,5-difluorophenyl)-1,2,4-triazol-3-yl]amino]-5-methyl-phenyl]piperazin-1-yl]ethoxy]ethanol], under setting [4], the fold induction at 1 µM was in the range of 1 to 10 and the fold induction at 10 µM is no more than 1.

As to `Cc1cc(Nc2ncn(-c3cc(F)cc(F)c3)n2)cc(OC2CCCN(C3COC3)C2)c1` (stereo not drawn) [Compound 620, 1-(3,5-difluorophenyl)-N-[3-methyl-5-[[1-(oxetan-3-yl)-3-piperidyl]oxy]phenyl]-1,2,4-triazol-3-amine], under setting [1], the fold induction at 1 µM is 10 to 100 and the fold induction at 10 µM is 1 to 10.

For the compound `CC(=O)N1CCCC(c2cc(C)cc(Nc3ncn(-c4cc(F)cc(F)c4)n3)c2)C1` (stereo not drawn) [Compound 266, 1-[3-[3-[[1-(3,5-difluorophenyl)-1,2,4-triazol-3-yl]amino]-5-methyl-phenyl]-1-piperidyl]ethanone], under setting [2], the fold induction at 1 µM was in the range of 10 to 100. Besides, under setting [3], the fold induction at 10 µM fell in the range of 100 to 1000.

For the compound `c1ccc(-n2cnc(Nc3cc(C4CCOC4)cc(N4CCOCC4)c3)n2)cc1` (stereo not drawn) [Compound 165, N-(3-morpholino-5-tetrahydrofuran-3-yl-phenyl)-1-phenyl-1,2,4-triazol-3-amine], under setting [2], the fold induction at 1 µM was 100 to 1000. Moreover, under setting [3], the fold induction at 10 µM was in the range of 10 to 100.

`Cc1cc(Nc2ncn(-c3cc(F)cc(N4CC[C@@H](C(C)(C)O)C4)c3)n2)cc(N2CCN(C3COC3)CC2)c1` [Compound 318, 2-[(3R)-1-[3-fluoro-5-[3-[3-methyl-5-[4-(oxetan-3-yl)piperazin-1-yl]anilino]-1,2,4-triazol-1-yl]phenyl]pyrrolidin-3-yl]propan-2-ol]: the fold induction at 1 µM under setting [2] was 10 to 100. Also, the fold induction at 10 µM under setting [3] was no more than 1.

For `Cc1cc(Nc2ncn(-c3cc(F)cc(F)c3)n2)c(F)c(NC2CCOC2)c1` (stereo not drawn) [Compound 765, N3-[1-(3,5-difluorophenyl)-1,2,4-triazol-3-yl]-2-fluoro-5-methyl-N1-tetrahydrofuran-3-yl-benzene-1,3-diamine], under setting [1], the fold induction at 1 µM fell in the range of 10 to 100 and the fold induction at 10 µM was in the range of 1 to 10.

With `CCOCCN1CCN(c2cc(C)cc(Nc3ncn(-c4cc(F)cc(F)c4)n3)c2)CC1` [Compound 973, 1-(3,5-difluorophenyl)-N-[3-[4-(2-ethoxyethyl)piperazin-1-yl]-5-methyl-phenyl]-1,2,4-triazol-3-amine], under setting [4], the fold induction at 1 µM lay within 10 to 100 and the fold induction at 10 µM is no more than 1.

As for `Cc1cc(Nc2ncn(-c3ccccc3)n2)cc(OC2CCN(C3COC3)CC2)c1` [Compound 410, N-[3-methyl-5-[[1-(oxetan-3-yl)-4-piperidyl]oxy]phenyl]-1-phenyl-1,2,4-triazol-3-amine], under setting [1], the fold induction at 1 µM was in the range of 10 to 100 and the fold induction at 10 µM is no more than 1.

`Fc1cc(-n2cnc(Nc3cc(C4CC4)cc(N4CCN(C5COC5)CC4)c3)n2)ccn1` [Compound 184, N-[3-cyclopropyl-5-[4-(oxetan-3-yl)piperazin-1-yl]phenyl]-1-(2-fluoro-4-pyridyl)-1,2,4-triazol-3-amine]: under setting [2], the fold induction at 1 µM lay in the range of 10 to 100. Further, the fold induction at 10 µM under setting [3] is 1 to 10.

These data come from US10766869B2, “Triazoles for the treatment of demyelinating dieases” (Vertex Pharmaceuticals Incorporated, priority 2015, dated 2020).
